This is an account of results in patent publication US7790921B2 (Biolink Life Sciences, Inc., priority 2007, dated 2010).

Entries after “also recorded” stand apart in the source; their conditions may differ. Like-named read-outs stand apart in the source and are kept apart here.

One data set relates to deacetylase. Conditions: dose between 20 and 40 mg/kg, patients with cervical cancer; cited from earlier work.
For data set [1] the following is noted: literature; cited from earlier work.
Another data set concerns HIV-infected individuals. The settings on record: 250 mg twice daily, 10 weeks; cited from earlier work.
For data set [2], the system named is patients with major depressive illness, bipolar disorder, or schizoaffective disorder. Conditions: cited from earlier work.
A short description of data set [3]: Solubility in simulated intestinal fluid USP. It is filed as physicochemical.
The nature of data set [4]: Hygroscopicity and storage stability of the solid. It is filed as physicochemical.
Data set [5] in a line: Solubility of lithium valproate in water / aqueous solutions.
The nature of another data set: Solubility in methanol. Conditions: product of Examples 2 and 3.
Data set [6] is described as follows: Solubility in simulated gastric fluid USP. It is filed as physicochemical.
The mark [7] stands for this setting: mean duration of at least 1 year of administration.

“2-propylpentanoic acid magnesium salt [magnesium valproate]”: in the data set on deacetylase, the “effect on deacetylase activity in tumor tissues” value is “inhibits deacetylase activity”.

For `CCCC(CCC)C(=O)O` [divalproex sodium], in data set [1], the hygroscopicity entry is on record as “not hygroscopic”.

On to `CCCC(CCC)C(=O)O` [Valproic acid, 2-propylpentanoic acid], for which the “solubility in water” value in data set [1] is “very slightly soluble”. For the same compound, in the data set with HIV-infected individuals, the safety and tolerability result was “safe and well tolerated”. Moreover, the “mean change in GAS ratings” value in data set [2] (bipolar and schizoaffective patients, average of 11 to 14 months of treatment) was 35.0. In addition, in data set [2] (setting [7]), the “patients with improved mean GAS scores, bipolar disorder” value is given as 12 of 12; the “patients with improved mean GAS scores, depressed patients” value is listed as 7 of 9; the “patients with improved mean GAS scores, schizoaffective states” value is 11 of 14.

For `CCCC(CCC)C(=O)[O-].[Li+]` [lithium valproate], the “solubility in simulated intestinal fluid USP” value in data set [3] was “soluble”. In addition, in data set [4], the hygroscopicity result was “not hygroscopic or deliquescent; also recorded: non-hygroscopic” and the stability during storage entry is on record as “stable during storage”. For the same compound, in data set [5] (portions added to 1 mL water until undissolved), the “solubility of lithium valproate in water” value is given as “about 250 mg of lithium valproate per mL of water”. For the same compound, in data set [5] (product of Examples 2 and 3), the “solubility in water” value is listed as “very soluble”. In addition, the “pH of aqueous solutions” value in data set [5] (water or aqueous solutions) is listed as “near neutral pH”. Further, the “solubility in methanol” value in “Solubility in methanol” is “very soluble”. The “solubility in simulated gastric fluid USP” value in [6] is on record as “soluble”.

As to `CCCC(CCC)C(=O)[O-].[Na+]` [Sodium valproate], in data set [1], the hygroscopicity entry is listed as “hygroscopic”.
